Measurements as given in patent US12448369B2 (Edgewise Therapeutics, Inc., priority 2023, dated 2025).

Tests used:
[1] = system: Rabbit Psoas myofibrils (skeletal myosin ATPase); experiment: Myofibril ATPase assay, rabbit psoas (skeletal) myofibrils; format: biochemical; settings: rabbit psoas myofibrils
Summary of the method: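 Values are concentrations giving 75% (Y75) or 125% (Y125) of vehicle ATPase activity, from 4-parameter logistic fits of normalized rates. Rates came from linear regression of A340 over 75 min, NADH oxidation coupled to ADP via PK-LDH. Enzyme source: skeletal myofibrils from rabbit psoas, pH 7.0 pCa buffer.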

[2] = system: Porcine atria myofibrils (atrial myosin ATPase); experiment: Myofibril ATPase assay, porcine atria myofibrils; format: biochemical; settings: porcine atria myofibrils
Summary of the method: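 Y75 (25% inhibition) or Y125 (activation) values come from 4-parameter logistic fits of vehicle-normalized rates. Rates are linear-regression slopes of NADH absorbance at 340 nm, read kinetically over 75 min, with ADP coupled to NADH oxidation via pyruvate kinase/lactate dehydrogenase.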

[3] = biological target: T1, Porcine ventricle myofibrils (ventricular myosin ATPase) (Sus scrofa, UniProt P79293); experiment: Myofibril ATPase assay, porcine ventricle myofibrils; format: biochemical, porcine (Yucatan minipigs); settings: porcine ventricle myofibrils
T1 construct: Myofibrils from porcine cardiac muscle was isolated from the left ventricle of Yucatan minipigs; tissue Exemplar Genetics; host or cells: left ventricle of Yucatan minipigs, myofibrils prepared in house
Summary of the method: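 Read-out: A340 kinetic, NADH consumption coupled to ADP via PK-LDH, 75 min. Yucatan minipig LV myofibrils, pCa buffer (PIPES/CaCl2/EGTA, pH 7.0). Linear-regression slope (mAU/min), vehicle = 100%, 4PL fit; Y75 or Y125 reported.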

[4] = Y75 value (75% activity relative to no compound)
[5] = ‡ Y125 value, not a Y75 value (125% activity relative to no compound)

T1 sequence (P79293 whole entry): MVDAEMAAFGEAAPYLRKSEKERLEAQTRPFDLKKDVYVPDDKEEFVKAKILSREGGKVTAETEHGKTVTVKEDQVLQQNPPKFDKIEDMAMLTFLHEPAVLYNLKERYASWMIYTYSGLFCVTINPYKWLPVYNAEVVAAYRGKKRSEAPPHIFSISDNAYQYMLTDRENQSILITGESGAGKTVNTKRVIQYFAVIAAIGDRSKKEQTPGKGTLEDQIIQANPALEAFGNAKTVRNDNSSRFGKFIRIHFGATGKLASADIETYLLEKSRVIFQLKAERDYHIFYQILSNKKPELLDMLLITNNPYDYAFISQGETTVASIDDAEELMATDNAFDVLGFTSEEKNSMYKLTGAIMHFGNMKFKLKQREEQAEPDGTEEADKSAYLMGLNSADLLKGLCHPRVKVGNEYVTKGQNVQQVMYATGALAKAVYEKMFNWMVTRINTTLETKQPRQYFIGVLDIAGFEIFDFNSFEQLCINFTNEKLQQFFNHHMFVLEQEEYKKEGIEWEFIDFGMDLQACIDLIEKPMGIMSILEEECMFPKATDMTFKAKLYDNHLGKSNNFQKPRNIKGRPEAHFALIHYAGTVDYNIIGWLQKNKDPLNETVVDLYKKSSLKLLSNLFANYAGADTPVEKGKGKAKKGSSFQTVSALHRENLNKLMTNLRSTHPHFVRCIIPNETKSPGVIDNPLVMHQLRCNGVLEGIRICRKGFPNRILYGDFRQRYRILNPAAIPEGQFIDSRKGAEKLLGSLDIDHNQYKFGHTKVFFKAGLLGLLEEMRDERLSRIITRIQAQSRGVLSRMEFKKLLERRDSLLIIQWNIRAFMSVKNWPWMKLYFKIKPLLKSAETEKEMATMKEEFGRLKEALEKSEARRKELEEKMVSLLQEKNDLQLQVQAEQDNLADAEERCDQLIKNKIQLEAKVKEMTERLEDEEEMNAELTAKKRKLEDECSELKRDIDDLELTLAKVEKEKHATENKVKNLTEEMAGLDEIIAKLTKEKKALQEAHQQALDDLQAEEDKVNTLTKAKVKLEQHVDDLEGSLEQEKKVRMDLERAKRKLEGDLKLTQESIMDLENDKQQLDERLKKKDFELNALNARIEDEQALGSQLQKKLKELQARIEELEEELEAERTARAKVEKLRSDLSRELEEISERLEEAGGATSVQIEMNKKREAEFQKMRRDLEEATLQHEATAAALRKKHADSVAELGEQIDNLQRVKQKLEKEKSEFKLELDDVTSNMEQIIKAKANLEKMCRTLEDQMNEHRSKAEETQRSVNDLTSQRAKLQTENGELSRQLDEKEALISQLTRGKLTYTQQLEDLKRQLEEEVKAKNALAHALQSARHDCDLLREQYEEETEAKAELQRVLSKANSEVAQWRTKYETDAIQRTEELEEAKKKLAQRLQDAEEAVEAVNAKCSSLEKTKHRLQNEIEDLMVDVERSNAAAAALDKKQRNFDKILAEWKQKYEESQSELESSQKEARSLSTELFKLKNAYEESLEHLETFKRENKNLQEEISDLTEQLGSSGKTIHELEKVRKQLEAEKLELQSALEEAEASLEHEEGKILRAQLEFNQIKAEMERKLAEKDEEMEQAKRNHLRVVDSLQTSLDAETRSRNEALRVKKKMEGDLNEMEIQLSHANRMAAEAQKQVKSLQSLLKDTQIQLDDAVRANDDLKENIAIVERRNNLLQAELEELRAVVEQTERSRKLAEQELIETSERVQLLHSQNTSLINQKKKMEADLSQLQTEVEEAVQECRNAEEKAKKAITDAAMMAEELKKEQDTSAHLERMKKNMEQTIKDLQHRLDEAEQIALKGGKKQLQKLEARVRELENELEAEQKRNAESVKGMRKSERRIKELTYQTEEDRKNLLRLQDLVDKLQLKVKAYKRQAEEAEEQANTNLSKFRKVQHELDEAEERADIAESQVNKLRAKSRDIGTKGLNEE

Cc1c(C(F)(F)C(=O)NC(C)c2cccc(C#N)n2)c(=O)[nH]c2ccc(F)c(F)c12 (single isomer, unassigned) [Compound 2587]
Skeletal EC25 ([1]; Y75 value (no ‡ mark)): 5.65 µM
Atrial EC25 ([2]; Y75 value (no ‡ mark)): 5.60 µM
Ventricular EC25 ([3]; Y75 value (no ‡ mark)): 100.00 µM

Cc1c(CC(=O)N[C@H](C)c2ncc(C#N)cc2F)c(=O)[nH]c2cc(F)ccc12 [compound 1078]
Skeletal EC25 ([1]; Y75 value (no ‡ mark)): 2.27 µM
Atrial EC25 ([2]; Y75 value (no ‡ mark)): 2.57 µM
Ventricular EC25 ([3]; Y75 value (no ‡ mark)): 2.05 µM

Cc1nccc2[nH]c(=O)c(CC(=O)N[C@H](CO)c3ccc(C#N)cc3F)c(C)c12 (single isomer, unassigned) [compound 238]
Skeletal EC25 ([1]; Y75 value): 2.87 µM
Atrial EC25 [2, 4]: 8.52 µM
Ventricular EC25 ([3]; Y75 value): 11.53 µM

Cc1c(C(F)(F)C(=O)N[C@@H](C)c2ncc(C#N)cc2F)c(=O)[nH]c2ccc(F)cc12 (single isomer, unassigned) [compound 2607]
Skeletal EC25 ([1]; Y75 value (no ‡ mark)): 0.04 µM
Atrial EC25 ([2]; Y75 value (no ‡ mark)): 0.07 µM
Ventricular EC25 ([3]; Y75 value (no ‡ mark)): 0.17 µM

Cc1c(CC(=O)N[C@H](C)c2ccc(C#N)cc2F)c(=O)[nH]c2ccnc(C(F)(F)F)c12 [compound 161]
Skeletal EC25 ([1]; Y75 value): 0.11 µM
Atrial EC25 [2, 4]: 0.34 µM
Ventricular EC25 ([3]; Y75 value): 1.19 µM

Cc1c(CC(=O)N[C@H](CO)c2ccc(F)cc2F)c(=O)[nH]c2ccc(C#N)nc12 [compound 210]
Skeletal EC25 ([1]; Y75 value): 7.04 µM
Atrial EC25 [2, 4]: 30.20 µM
Ventricular EC25 ([3]; Y75 value): 100.00 µM

Cc1nccc2[nH]c(=O)c(CC(=O)N[C@H]3COc4cccnc43)c(C)c12 (single isomer, unassigned) [compound 252]
Skeletal EC25 ([1]; Y75 value): 100.00 µM
Atrial EC25 [2, 4]: 100.00 µM
Ventricular EC25 ([3]; Y75 value): 100.00 µM

Cc1c(C(F)(F)C(=O)N[C@@H](C)c2ccc(F)cc2F)c(=O)[nH]c2ccnc(Cl)c12 [compound 401]
Skeletal EC25 ([1]; Y75 value): 0.02 µM
Atrial EC25 [2, 4]: 0.05 µM
Ventricular EC25 ([3]; Y75 value): 0.20 µM

Cc1c([C@H](C)C(=O)N[C@@H](C)c2ccc(F)cc2F)c(=O)[nH]c2ccnc(F)c12 (single isomer, unassigned) [compound 375]
Skeletal EC25 ([1]; Y75 value): 0.17 µM
Atrial EC25 [2, 4]: 0.27 µM
Ventricular EC25 ([3]; Y75 value): 4.58 µM

Cc1c(CC(=O)N[C@@H](C)c2ncc(C#N)cc2F)c(=O)[nH]c2ccc(F)cc12 [compound 1107]
Skeletal EC25 ([1]; Y75 value (no ‡ mark)): 0.03 µM
Atrial EC25 ([2]; Y75 value (no ‡ mark)): 0.12 µM
Ventricular EC25 ([3]; Y75 value (no ‡ mark)): 0.15 µM

C[C@H](NC(=O)Cc1c(C(F)(F)F)c2c(C3CC3)nccc2[nH]c1=O)c1ncc(C#N)cn1 (single isomer, unassigned) [compound 3002]
Skeletal EC25 ([1]; Y75 value): 100.00 µM
Atrial EC25 [2, 4]: 100.00 µM
Ventricular EC25 ([3]; Y75 value): 100.00 µM

C[C@@H](NC(=O)Cc1c(O)c2cc(F)c(F)cc2[nH]c1=O)c1ccc(C#N)cc1F [compound 1086]
Skeletal EC25 ([1]; Y75 value (no ‡ mark)): 100.00 µM
Atrial EC25 ([2]; Y75 value (no ‡ mark)): 1.94 µM
Ventricular EC25 ([3]; Y75 value (no ‡ mark)): 100.00 µM

Cc1nccc2[nH]c(=O)c(CC(=O)N[C@@H](CO)c3ccc(F)cc3F)c(C)c12 (single isomer, unassigned) [compound 396]
Skeletal EC25 ([1]; Y75 value): 0.55 µM
Atrial EC25 [2, 4]: 1.18 µM
Ventricular EC25 ([3]; Y75 value): 3.32 µM

C[C@@H](NC(=O)[C@H](C)c1cc2c(F)c(F)ccc2[nH]c1=O)c1ncc(C#N)cc1F (single isomer, unassigned) [compound 2598]
Skeletal EC25 [1, 5]: 100.00‡ μM
Atrial EC25 ([2]; Y75 value (no ‡ mark)): 0.60 µM
Ventricular EC25 ([3]; Y75 value (no ‡ mark)): 1.10 µM

Cc1c(C2(C(=O)N[C@H](C)c3nccc(C#N)n3)CC2)c(=O)[nH]c2ccc(F)c(F)c12 (single isomer, unassigned) [compound 2509]
Skeletal EC25 [1, 5]: 94.41‡ μM
Atrial EC25 [2, 5]: 100.00‡ μM
Ventricular EC25 [3, 5]: 77.92‡ μM

Cc1nccc2[nH]c(=O)c(CC(=O)N[C@H](C)c3ccc(C#N)cn3)c(C)c12 (single isomer, unassigned) [compound 253]
Skeletal EC25 ([1]; Y75 value): 100.00 µM
Atrial EC25 [2, 4]: 100.00 µM
Ventricular EC25 ([3]; Y75 value): 100.00 µM

Cc1c(C(F)(F)C(=O)N[C@@H]2COc3cc(C#N)cc(F)c32)c(=O)[nH]c2ccc(F)cc12 (single isomer, unassigned) [compound 2553]
Skeletal EC25 ([1]; Y75 value (no ‡ mark)): 0.79 µM
Atrial EC25 ([2]; Y75 value (no ‡ mark)): 0.51 µM
Ventricular EC25 ([3]; Y75 value (no ‡ mark)): 34.88 µM

C[C@H](NC(=O)Cc1cc2c(Cl)nccc2[nH]c1=O)c1ccc(F)cc1F [compound 439]
Skeletal EC25 ([1]; Y75 value): 0.10 µM
Atrial EC25 [2, 4]: 0.06 µM
Ventricular EC25 ([3]; Y75 value): 0.47 µM

C[C@H](NC(=O)C1(c2cc3cc(F)ccc3[nH]c2=O)CC1)c1cccc(C#N)n1 (single isomer, unassigned) [compound 2535]
Skeletal EC25 [1, 5]: 51.07‡ μM
Atrial EC25 ([2]; Y75 value (no ‡ mark)): 100.00 µM
Ventricular EC25 [3, 5]: 85.38‡ μM

Cc1c(C(F)(F)C(=O)NC(C)c2cccc(C#N)n2)c(=O)[nH]c2ccc(F)c(F)c12 (single isomer, unassigned) [Compound 2588]
Skeletal EC25 [1, 5]: 19.03‡ μM
Atrial EC25 ([2]; Y75 value (no ‡ mark)): 100.00 µM
Ventricular EC25 [3, 5]: 67.27‡ μM

Cc1c(CC(=O)N[C@@H](CO)c2ccc(F)cc2F)c(=O)[nH]c2ccc(C(F)(F)F)nc12 [compound 217]
Skeletal EC25 ([1]; Y75 value): 0.71 µM
Atrial EC25 [2, 4]: 0.36 µM
Ventricular EC25 ([3]; Y75 value): 6.79 µM

Cc1c(CC(=O)N[C@H](C)c2ccc(C#N)cn2)c(=O)[nH]c2ccc(F)c(C#N)c12 [compound 49]
Skeletal EC25 ([1]; Y75 value (no ‡ mark)): 0.06 µM
Atrial EC25 ([2]; Y75 value (no ‡ mark)): 0.18 µM
Ventricular EC25 ([3]; Y75 value (no ‡ mark)): 0.68 µM

C[C@H](NC(=O)C1(c2cc3c(F)c(F)ccc3[nH]c2=O)CC1)c1cc(C#N)ccn1 (single isomer, unassigned) [compound 2584]
Skeletal EC25 [1, 5]: 100.00‡ μM
Atrial EC25 ([2]; Y75 value (no ‡ mark)): 100.00 µM
Ventricular EC25 [3, 5]: 100.00‡ μM

Cc1c(CC(=O)N[C@@H](C)c2ccc(C#N)cc2F)c(=O)[nH]c2ccnc(C#N)c12 (single isomer, unassigned) [compound 283]
Skeletal EC25 ([1]; Y75 value): 0.01 µM
Atrial EC25 [2, 4]: 0.04 µM
Ventricular EC25 ([3]; Y75 value): 0.10 µM

Cc1c(CC(=O)N[C@@H](C)c2ccc(F)cc2F)c(=O)[nH]c2ccncc12 [compound 448]
Skeletal EC25 ([1]; Y75 value): 0.17 µM
Atrial EC25 [2, 4]: 0.65 µM
Ventricular EC25 ([3]; Y75 value): 7.29 µM

C#Cc1nccc2[nH]c(=O)c(CC(=O)N[C@@H](C)c3cnc(N=[N+]=[N-])cc3C)c(C)c12 [compound 488]
Skeletal EC25 ([1]; Y75 value): 1.15 µM
Atrial EC25 [2, 4]: 12.56 µM
Ventricular EC25 ([3]; Y75 value): 4.94 µM

Cc1nccc2[nH]c(=O)c(CC(=O)N[C@@H](C)c3c(F)cc(F)cc3F)c(C)c12 [compound 500]
Skeletal EC25 ([1]; Y75 value): 2.3 µM
Atrial EC25 [2, 4]: 43 µM
Ventricular EC25 ([3]; Y75 value): 70 µM

Cc1nccc2[nH]c(=O)c(CC(=O)N[C@@H](C)c3ccc(F)cc3F)c(F)c12 [compound 150]
Skeletal EC25 ([1]; Y75 value): 0.09 µM
Atrial EC25 [2, 4]: 0.06 µM
Ventricular EC25 ([3]; Y75 value): 0.68 µM

Cc1c(C(F)(F)C(=O)N[C@H](C)c2ncc(C#N)cc2F)c(=O)[nH]c2cccc(F)c12 (single isomer, unassigned) [compound 2538]
Skeletal EC25 ([1]; Y75 value (no ‡ mark)): 0.11 µM
Atrial EC25 ([2]; Y75 value (no ‡ mark)): 0.17 µM
Ventricular EC25 ([3]; Y75 value (no ‡ mark)): 0.18 µM

Cc1c(CC(=O)N[C@@H](C)c2ncc(C#N)cc2F)c(=O)[nH]c2ccc(OC(F)(F)F)nc12 [compound 456]
Skeletal EC25 ([1]; Y75 value): 0.53 µM
Atrial EC25 [2, 4]: 0.66 µM
Ventricular EC25 ([3]; Y75 value): 3.69 µM

Cc1nccc2[nH]c(=O)c(CC(=O)N[C@@H](C)c3ccc(C#N)cc3F)c(C#N)c12 [compound 154]
Skeletal EC25 ([1]; Y75 value): 0.04 µM
Atrial EC25 [2, 4]: 0.18 µM
Ventricular EC25 ([3]; Y75 value): 0.54 µM

Cc1cc(C#N)nnc1[C@@H](C)NC(=O)Cc1c(C)c2c(C)nccc2[nH]c1=O [compound 489]
Skeletal EC25 ([1]; Y75 value): 0.26 µM
Atrial EC25 [2, 4]: 1.00 µM
Ventricular EC25 ([3]; Y75 value): 0.57 µM
